Patent publication US5229131A, “Pulsatile drug delivery system” (priority 1991, dated 1993)
Structures can show the parent of a compound that is named as a salt. Where two headings read alike, the source gives them in different places.

Experiments:
[1] = cited from earlier work
[2] = saturated solution; cited from earlier work
in vivo = details: dog, iv
Description: Single IV doses were given to each of a group of four beagle dogs: 5 mg of propranolol free base was dissolved in 3 ml sterile sodium chloride solution USP. The solution was infused over a 20 second period through an in-line millipore filter. Blood samples (1 ml) were withdrawn at desired intervals postinfusion. The IV results are shown as a " ." Similarly, blood plasma samples were withdrawn and analyzed for oral administration of 80 mg propranolol in immediate release form (" ") and the polymer coated dosage delivery form of section A. above ("+").
DDT is indicated by the release of citric acid from the drug-containing core which causes a spike in the pH time profile. The pH will remain depressed for the duration of the dissolution of the citric acid.
Blood samples (1 ml) were withdrawn at 5, 10, 15, 20, 30, 40, 50, 60, 70, 80, 90, 105, 120, 150, 180, 240, 300, 360 and 420 minutes after dosing for the immediate release dosage form. For the polymer coated tablets, the sampling schedule began at the time of coating dissolution (CDT). After dissolution, blood samples (1 ml) were withdrawn at 5, 15, 30, 45, 60, 90, 120, 190, 240, 300, 360 and 420 minutes.

[3] = in man; cited from earlier work
[4] = list of drugs with nonlinear kinetics

**Q.** With `CC(C)C[C@H]1C(=O)N2CCC[C@H]2[C@]2(O)O[C@](NC(=O)[C@@H]3C=C4c5cccc6[nH]c(Br)c(c56)C[C@H]4N(C)C3)(C(C)C)C(=O)N12` [Bromocriptine Mesylate] as the compound, how does the F [1, 4] read?
**A.** 0.6

**Q.** With `[Cl-].[Na+]` [sodium chloride] as the compound, how does the osmotic pressure [2] read?
**A.** 5250 psi

**Q.** For `C[C@]12C=CC(=O)C=C1CC[C@@H]1[C@@H]2C(=O)C[C@@]2(C)[C@H]1CC[C@]2(O)C(=O)CO` [Prednisone], which F ([1]; in vivo) is on record?
**A.** 0.85

**Q.** With `CN/C(=N/CCSCc1nc[nH]c1C)NC#N` [Cimetidine] as the compound, how does the F [1, 4] read?
**A.** 0.7

**Q.** For `C#C[C@]1(O)CC[C@H]2[C@@H]3CCc4cc(O)ccc4[C@H]3CC[C@@]21C` [Ethinylestradiol], which F [1, 4] is on record?
**A.** 0.4

**Q.** Which F [1, 4] does the source give for `C[C@H]1C[C@@H]2[C@H]([C@@H](O)C[C@@]3(C)[C@H]2CC[C@]3(O)C(=O)CO)[C@@]2(C)C=CC(=O)C=C12` [Methylprednisolone] here?
**A.** 0.85

**Q.** For `C#C[C@]1(O)CC[C@H]2[C@@H]3CCC4=CC(=O)CC[C@@H]4[C@H]3CC[C@@]21C` [Norethindrone], which F [1, 4] is on record?
**A.** 0.65

**Q.** Which half-life (in vivo; half-life) does the source give for `CC(C)NCC(O)COc1cccc2ccccc12` (stereo not shown) [propranolol] here?
**A.** 1.97 h

**Q.** And the half-life (in vivo; terminal phase half-life)?
**A.** ~2 h

**Q.** What about the biological half-life [3] of the same compound?
**A.** two to six
